# Reference: US20100158808A1, “Altered Activity of Toll-Like Receptors” (priority 2003, published 2010)
# Assays:
# CD86 = CD86 expression in spleen after injection into the spleens of mice; format: in vivo; conditions: for Expression of CD86 in the spleen: injection into spleen of mice
# Experimental: Surgical Procedures and Immunohistochemistry. Mice were anesthetized and the spleen was directly visualized through an incision in the lateral abdominal wall. Particular substances in […] of PBS were injected into the spleen. Spleens were harvested after 12 hours and sections were frozen in liquid nitrogen. Tissue sections were prepared and stained as described in (Dempsey et al. supra) with the following modifications. Secondary detection antibodies were diluted in M.O.M. diluent (Vector Laboratories, Burlingame, Calif.) and preabsorbed with mouse serum (Jackson ImmunoResearch Laboratories, West Grove, Pa.). Fluorescent images were converted to grayscale using SPOT software (Diagnostic Instruments, Sterling Heights, Mich.).
# To determine whether elastase activity on ECM activates TLR4 responses in living tissues, elastase was injected into the spleens of mice. Such treatment typically causes rapid shedding of HS proteoglycans from the tissue, especially from blood vessels (Johnson et al. (2004) J. Immunol. (Cutting Edge) 172:20-24). The spleens were removed and examined for expression of CD86, a protein expressed in response to TLR4 signaling (Kaisho and Akira (2002) Biochim. Biophys. Acta 1589:1-13). […] In contrast, the expression of CD86 observed in leukocytes detached from ECM and stimulated with LPS or HS is considerably heightened (Johnson et al. supra). […] The changes in CD86 expression induced by elastase required TLR4, as the increase in CD86 was not observed when elastase was injected into spleens of mice lacking TLR4 function. Thus, the ECM may limit TLR4 signaling in vivo, and cleavage of ECM can trigger TLR4 signaling in living tissues.
# mice = assay: Experimental shock model (SIRS), D-galactosamine, i.p. injection; format: in vivo; conditions: for Death / SIRS in shock model: TLR4-mutant mice; for Death / SIRS in shock model / Death in shock model: i.p. with D-galactosamine; for Death in shock model: TLR4 wild-type mice
# Experimental: Experimental shock model. Age- and sex-matched mice were injected with 5 mg of HS, 5 μg of LPS, 5 μg of Limulus anti-LPS factor, 5 mg of chondroitin sulfate, 200 U (−5 mg) heparin, 150 μg of CpG DNA, 1.5 U of elastase, or PBS mixed with 20 mg of D-galactosamine in a total volume of 500 μl of PBS by i.p. injection as previously described (Franks et al. (1991) Infect. Immun. 59:2609). Concentrations of HS and elastase were calculated by weight of lyophilized powder, and the doses used were near the LD50 based on dose-response experiments. In some experiments, the agonist was mixed with 5 or 20 μg of Limulus anti-LPS factor before injection. For some injections, enzymes were boiled at 100° C. for 60 minutes and vortexed vigorously, or preincubated with elastase inhibitor-1 for 4 hours at room temperature and then mixed with D-galactosamine before injection. Mice were monitored every hour for 48 hours and then euthanized.
# During sepsis, Gram-negative bacteria shed LPS, which activates TLR4 on cells that then release inflammatory cytokines mediating systemic inflammation and death (Beutler (2000) Curr. Opin. Immunol. 12:20). To determine whether soluble HS can induce a model of systemic inflammatory response syndrome (SIRS) via activation of TLR4 in mice, HS was administered by i.p. injection to TLR4 wild type and mutant mice. This mouse model system has been used to study shock and a sepsis-like syndrome in response to microbial toxins (Galanos et al. (1979) Proc. Natl. Acad. Sci. USA 76:5939). […] Moreover, the observed responses were not due to contamination of HS by LPS, since the HS used was not contaminated with LPS.
Substance,Expression of CD86 in the spleen (CD86),Increase in CD86 in the spleen (CD86; mice lacking TLR4 function),Death / SIRS in shock model (mice),"Percent death after injection of elastase in SIRS shock model, TLR4 Mutant (%) (mice; TLR4 mutant mice)","Percent death after injection of elastase in SIRS shock model, TLR4 Wild Type (%) (mice; TLR4 wild type mice)",Death in shock model (mice)
"elastase: pancreatic elastase (Calbiochem; type IV porcine pancreatic elastase, Sigma-Aldrich), protease that cleaves ECM proteins",profoundly increased,not observed,no TLR4 mutant mice died,0%,50%,Fifty percent
heparan sulfate [HS],modestly increased,,no TLR4-mutant mice injected with HS died,,,eighty percent
lipopolysaccharide [LPS],modestly increased,,,,,died
